Target: Factor D (Homo sapiens, UniProt P00746)
Experiment: Factor D esterolytic assay

Sequence of Factor D (P00746 26-253): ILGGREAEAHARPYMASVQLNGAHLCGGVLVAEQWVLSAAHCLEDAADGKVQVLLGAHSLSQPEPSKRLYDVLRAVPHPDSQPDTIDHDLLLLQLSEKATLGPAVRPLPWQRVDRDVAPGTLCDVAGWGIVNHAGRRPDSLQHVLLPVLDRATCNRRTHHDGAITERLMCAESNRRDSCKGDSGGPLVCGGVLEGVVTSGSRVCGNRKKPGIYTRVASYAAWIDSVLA

| SMILES | IC50 [nM] |
| --- | --- |
| C[C@@H](O)[C@H](NC(=O)Cn1nc(C(N)=O)c2ccccc21)C(=O)NCc1cccc(Cl)c1F [34d, 1-(2-(((2S,3R)-1-((3-chloro-2-fluorobenzyl)amino)-3-hydroxy-1-oxobutan-2-yl)amino)-2-oxoethyl)-1H-indazole-3-carboxamide] | > 10000 |
| Nc1ncnc2c1ccn2CC(=O)N(CC(=O)Nc1cccc(Br)n1)C1CC1 [56d, 2-(4-amino-7H-pyrrolo[2,3-d]pyrimidin-7-yl)-N-(2-((6-bromopyridin-2-yl)amino)-2-oxoethyl)-N-cyclopropylacetamide] | 1000 to 10000 |
| CC(C)N(CC(=O)NCc1cccc(Cl)c1F)C(=O)Cn1cc(C#N)c2c(N)ncnc21 [60a, 2-(4-amino-5-cyano-7H-pyrrolo[2,3-d]pyrimidin-7-yl)-N-(2-((3-chloro-2-fluorobenzyl)amino)-2-oxoethyl)-N-isopropylacetamide] | 1000 to 10000 |
| Nc1ncnc2c1ccn2CC(=O)N(CC(=O)NCc1cccc(Cl)c1F)C1CC1 [63a, 2-(4-amino-7H-pyrrolo[2,3-d]pyrimidin-7-yl)-N-(2-((3-chloro-2-fluorobenzyl)amino)-2-oxoethyl)-N-cyclopropylacetamide] | 1000 to 10000 |
| CC(C)N(CC(=O)NCc1cccc(Cl)c1F)C(=O)Cn1cc(C(N)=O)c2c(N)ncnc21 [65a, 4-amino-7-(2-((2-((3-chloro-2-fluorobenzyl)amino)-2-oxoethyl)(isopropyl)amino)-2-oxoethyl)-7H-pyrrolo[2,3-d]pyrimidine-5-carboxamide] | 1000 to 10000 |
| Nc1ncnc2c1cnn2CC(=O)N(CC(=O)NCc1cccc(Cl)c1F)C1CC1 [68a, 2-(4-amino-1H-pyrazolo[3,4-d]pyrimidin-1-yl)-N-(2-((3-chloro-2-fluorobenzyl)amino)-2-oxoethyl)-N-cyclopropylacetamide] | 1000 to 10000 |
| NC(=O)c1ncnc2c1ccn2CC(=O)N(CC(=O)Nc1cncc(Br)n1)C1CC1 [84a, 7-(2-((2-((6-bromopyrazin-2-yl)amino)-2-oxoethyl)(cyclopropyl)amino)-2-oxoethyl)-7H-pyrrolo[2,3-d]pyrimidine-4-carboxamide] | > 10000 |
| NC(=O)c1nn(CC(=O)N(CC(=O)NCc2cccc(Cl)c2F)[C@H]2C[C@@H](O)C2)c2ccccc12 [104b, 1-(2-((2-((3-chloro-2-fluorobenzyl)amino)-2-oxoethyl)((cis)-3-hydroxycyclobutyl)amino)-2-oxoethyl)-1H-indazole-3-carboxamide] | < 1000 |
| NC(=O)c1nn(CC(=O)N(CC(=O)NCc2cccc(Cl)c2F)[C@H]2C[C@H](O)C2)c2ccccc12 [110b, 1-(2-((2-((3-chloro-2-fluorobenzyl)amino)-2-oxoethyl)((trans)-3-hydroxycyclobutyl)amino)-2-oxoethyl)-1H-indazole-3-carboxamide] | < 1000 |
| CC(=O)c1cn(CC(=O)N(CC(=O)NCc2cccc(Cl)c2F)[C@H]2C[C@H](O)C2)c2ccc(Nc3cncnc3)cc12 [114a, 2-(3-acetyl-5-(pyrimidin-5-ylamino)-1H-indol-1-yl)-N-(2-((3-chloro-2-fluorobenzyl)amino)-2-oxoethyl)-N-((trans)-3-hydroxycyclobutyl)acetamide] | < 1000 |
| CC(=O)c1cn(CC(=O)N(CC(=O)NCc2cccc(Cl)c2F)C(C)C)c2ccc(C#Cc3cccnc3)cc12 [131a, 2-(3-acetyl-5-(pyridin-3-ylethynyl)-1H-indol-1-yl)-N-(2-((3-chloro-2-fluorobenzyl)amino)-2-oxoethyl)-N-isopropylacetamide] | < 1000 |
| CC(C)(C)OC(=O)N[C@H]1C[C@@H](N(CC(=O)NCc2cccc(Cl)c2F)C(=O)Cn2nc(C(N)=O)c3ccccc32)C1 [152b, tert-butyl ((cis)-3-(2-(3-carbamoyl-1H-indazol-1-yl)-N-(2-((3-chloro-2-fluorobenzyl)amino)-2-oxoethyl)acetamido)cyclobutyl)carbamate] | < 1000 |
| NC(=O)c1nn(CC(=O)N(CC(=O)NCc2cccc(Cl)c2F)[C@H]2C[C@@H](N)C2)c2ccccc12 [153a, 1-(2-(((cis)-3-aminocyclobutyl)(2-((3-chloro-2-fluorobenzyl)amino)-2-oxoethyl)amino)-2-oxoethyl)-1H-indazole-3-carboxamide] | < 1000 |
| CC(C)(C)OC(=O)N[C@H]1C[C@H](CN(CC(=O)NCc2cccc(Cl)c2F)C(=O)Cn2nc(C(N)=O)c3ccccc32)C1 [161b, tert-butyl ((trans)-3-((2-(3-carbamoyl-1H-indazol-1-yl)-N-(2-((3-chloro-2-fluorobenzyl)amino)-2-oxoethyl)acetamido)methyl)cyclobutyl)carbamate] | 1000 to 10000 |
| NC(=O)c1nn(CC(=O)N(CC(=O)NCc2cccc(Cl)c2F)C[C@H]2C[C@H](N)C2)c2ccccc12 [161c, 1-(2-((((trans)-3-aminocyclobutyl)methyl)(2-((3-chloro-2-fluorobenzyl)amino)-2-oxoethyl)amino)-2-oxoethyl)-1H-indazole-3-carboxamide] | < 1000 |
| NC(=O)c1nn(CC(=O)N(CC(=O)NCc2cccc(Cl)c2F)[C@H]2C[C@H](N)C2)c2ccccc12 [169c, 1-(2-(((trans)-3-aminocyclobutyl)(2-((3-chloro-2-fluorobenzyl)amino)-2-oxoethyl)amino)-2-oxoethyl)-1H-indazole-3-carboxamide] | < 1000 |
| CO[C@H]1C[C@H](N(CC(=O)NCc2cccc(Cl)c2F)C(=O)Cn2nc(C(N)=O)c3ccccc32)C1 [170b, 1-(2-((2-((3-chloro-2-fluorobenzyl)amino)-2-oxoethyl)((trans)-3-methoxycyclobutyl)amino)-2-oxoethyl)-1H-indazole-3-carboxamide] | < 1000 |
| NC(=O)c1nn(CC(=O)N(CC(=O)NCc2cccc(Cl)c2F)C[C@H]2C[C@H](O)C2)c2ccccc12 [172b, 1-(2-((2-((3-chloro-2-fluorobenzyl)amino)-2-oxoethyl)(((trans)-3-hydroxycyclobutyl)methyl)amino)-2-oxoethyl)-1H-indazole-3-carboxamide] | < 1000 |
| CC(=O)c1nn(CC(=O)N(CC(=O)NCc2cccc(Cl)c2F)[C@H]2C[C@H](O)C2)c2ccc(Nc3cncnc3)cc12 [182a, 2-(3-acetyl-5-(pyrimidin-5-ylamino)-1H-indazol-1-yl)-N-(2-((3-chloro-2-fluorobenzyl)amino)-2-oxoethyl)-N-(trans-3-hydroxycyclobutyl)acetamide] | < 1000 |
| CC(=O)c1nn(CC(=O)N(CC(=O)NCc2cccc(Cl)c2F)[C@H]2C[C@H](O)C2)c2ccccc12 [183a, 2-(3-acetyl-1H-indazol-1-yl)-N-(2-((3-chloro-2-fluorobenzyl)amino)-2-oxoethyl)-N-(trans-3-hydroxycyclobutyl)acetamide] | < 1000 |
| N#Cc1cn(CC(=O)N(CC(=O)NCc2cccc(Cl)c2F)C2CC2)c2ccc(C(=O)NCc3ccccc3)cc12 [200i, N-benzyl-1-(2-((2-((3-chloro-2-fluorobenzyl)amino)-2-oxoethyl)(cyclopropyl)amino)-2-oxoethyl)-3-cyano-1H-indole-5-carboxamide] | 1000 to 10000 |
| NC(=O)c1nn(CC(=O)N(CC(=O)NCc2cccc(Cl)c2F)[C@H]2C[C@@H](CO)C2)c2ccccc12 [210b, 1-(2-((2-((3-chloro-2-fluorobenzyl)amino)-2-oxoethyl)((cis)-3-(hydroxymethyl)cyclobutyl)amino)-2-oxoethyl)-1H-indazole-3-carboxamide] | < 1000 |
| COC(=O)c1ccc2c(c1)c(C(C)=O)nn2CC(=O)N(CC(=O)NCc1cccc(Cl)c1F)C1CC1 [227a, methyl 3-acetyl-1-(2-((2-((3-chloro-2-fluorobenzyl)amino)-2-oxoethyl)(cyclopropyl)amino)-2-oxoethyl)-1H-indazole-5-carboxylate] | < 1000 |
| CC(O)c1nn(CC(=O)N(CC(=O)NCc2cccc(Cl)c2F)C2CC2)c2ccc(NC(=O)N3CCCC(F)(F)C3)cc12 (stereo not drawn) [289a, N-(1-(2-((2-((3-chloro-2-fluorobenzyl)amino)-2-oxoethyl)(cyclopropyl)amino)-2-oxoethyl)-3-(1-hydroxyethyl)-1H-indazol-5-yl)-3,3-difluoropiperidine-1-carboxamide] | 1000 to 10000 |
| CC(C)(C)CC(=O)Nc1ccc2c(C(N)=O)nn(CC(=O)N(CC(=O)NCc3cccc(Cl)c3F)C3CC3)c2c1 [322b, 1-(2-((2-((3-chloro-2-fluorobenzyl)amino)-2-oxoethyl)(cyclopropyl)amino)-2-oxoethyl)-6-(3,3-dimethylbutanamido)-1H-indazole-3-carboxamide] | < 1000 |
| NC(=O)c1nn(CC(=O)N(CC(=O)NCc2cccc(Cl)c2F)C2CC2)c2ncc(N)cc12 [326b, 5-amino-1-(2-((2-((3-chloro-2-fluorobenzyl)amino)-2-oxoethyl)(cyclopropyl)amino)-2-oxoethyl)-1H-pyrazolo[3,4-b]pyridine-3-carboxamide] | 1000 to 10000 |
| C[C@H](CO)N(CC(=O)NCc1cccc(Cl)c1F)C(=O)Cn1nc(C(N)=O)c2cc(NC(=O)OC(C)(C)C)ccc21 [345e, (R)-tert-butyl (3-carbamoyl-1-(2-((2-((3-chloro-2-fluorobenzyl)amino)-2-oxoethyl)(1-hydroxypropan-2-yl)amino)-2-oxoethyl)-1H-indazol-5-yl)carbamate] | < 1000 |
| NC(=O)c1nn(CC(=O)N(CC(=O)NCc2cccc(Cl)c2F)[C@H]2C[C@H](N)C2)c2ccc([N+](=O)[O-])cc12 [347b, 1-(2-(((trans)-3-aminocyclobutyl)(2-((3-chloro-2-fluorobenzyl)amino)-2-oxoethyl)amino)-2-oxoethyl)-5-nitro-1H-indazole-3-carboxamide] | < 1000 |
| NC(=O)c1nn(CC(=O)N(CC(=O)Nc2cccc(Br)n2)[C@H]2C[C@H](N)C2)c2ccccc12 [349d, 1-(2-(((trans)-3-aminocyclobutyl)(2-((6-bromopyridin-2-yl)amino)-2-oxoethyl)amino)-2-oxoethyl)-1H-indazole-3-carboxamide] | < 1000 |
| NC(=O)c1nn(CC(=O)N(CC(=O)Nc2cncc(Br)n2)[C@H]2C[C@H](N)C2)c2ccccc12 [350c, 1-(2-(((trans)-3-aminocyclobutyl)(2-((6-bromopyrazin-2-yl)amino)-2-oxoethyl)amino)-2-oxoethyl)-1H-indazole-3-carboxamide] | < 1000 |

— patent EP3925956B1, “1H-INDAZOLE-3-CARBOXAMIDE DERIVATIVES AND RELATED COMPOUNDS AS FACTOR D INHIBITORS FOR TREATING DISEASES CHARACTERIZED BY ABERRANT COMPLEMENT SYSTEM ACTIVITY, SUCH AS E.G. IMMUNOLOGICAL DISORDERS” (BioCryst Pharmaceuticals, Inc., priority 2016, dated 2017)
